Patent US12545653B2, “Compound as PPAR agonist and application thereof” (USA Elixiria Biotech Inc., priority 2019, dated 2026)
Several values for one entry are separate records, joined by “and”; a condition that tells them apart may be missing. Equal values may be shown once.

Columns and labels:
PPARγ = biological target: T1, PPARγ (Homo sapiens, UniProt P37231); assay: In vitro transcriptional activity of PPARγ gene (PPRE-luciferase reporter, HEK 293 T cells); type: cell-based; settings: HEK 293 T cells transfected with PPARγ expression and PPRE-luc plasmids, 21 hours; read-out: EC50 of PPARγ gene activation
T1 construct: expressed in transfected cells; host or cells: HEK 293 T cells
T1 sequence (P37231 1-505): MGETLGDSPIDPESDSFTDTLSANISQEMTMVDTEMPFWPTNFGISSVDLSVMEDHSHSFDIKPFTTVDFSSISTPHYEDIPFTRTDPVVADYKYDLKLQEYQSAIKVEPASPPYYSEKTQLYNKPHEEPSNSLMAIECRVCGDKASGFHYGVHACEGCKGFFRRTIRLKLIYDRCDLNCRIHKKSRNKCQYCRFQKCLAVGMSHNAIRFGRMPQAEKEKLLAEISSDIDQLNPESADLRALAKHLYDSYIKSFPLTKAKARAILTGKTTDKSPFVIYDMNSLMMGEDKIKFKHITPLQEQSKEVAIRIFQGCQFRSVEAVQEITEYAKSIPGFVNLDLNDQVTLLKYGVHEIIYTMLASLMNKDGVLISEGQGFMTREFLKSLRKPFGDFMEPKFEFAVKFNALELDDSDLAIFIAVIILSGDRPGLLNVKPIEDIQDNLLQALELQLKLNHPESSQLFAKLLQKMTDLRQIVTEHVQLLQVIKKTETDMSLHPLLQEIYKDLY
Excerpt: In this experiment, the PPARγ gene was used as target gene to detect the in vitro transcription activity of the compounds. The compounds of interest were detected was first dissolved with dimethyl sulfoxide (DMSO). […] First two plasmids were constructed: PPARγ protein expression plasmid and luciferase reporter plasmid. They are both from the lentiviral plasmid pLV-CMVIE-ZsGreen-Puro, whose DNA sequence contains the cytomegalovirus immediate early (CMVie) promoter, ZsGreen and Puro dual reporter. The PPARγ expression plasmid pLV-CMVIE-PPAR[…]-ZsGreen-Puro was constructed by cloning full-length coding sequences of the pertinent receptors into pHBLV-CMVIE-ZsGreen-Puro vector. To construct the luciferase (luc) reporter plasmid pLV-PPRE-luc-ZsGreen-Puro, the CMVie promoter in plasmid pHBLV-CMVIE-ZsGreenPuro was first replaced by a peroxisome proliferator responsive element (PPRE) containing fragments comprised the nucleotide sequence 50-[…], repeated four times in tandem, to generate a new plasmid, at a multiple cloning site of which the luc gene was then inserted. […] The compounds used for screening are representatives for compounds listed in Table 2, and Tables 3 of the present invention. […] Cells were distributed in 10-cm tissue culture plates at a density of 5.5 million cells per plate, and then transfected with the luciferase reporter plasmid (6 nanogram/plate) and the PPARγ expression plasmid (18 nanogram/plate). Cells were cultured for 6 hours. […] Then the cells were distributed in 96-well plates at a density of 20,000 cells per well. After incubation for 6 h, compounds or control with different concentration were placed into each well, resulting in the finical concentration of […] with each concentration in triplicate. Twenty-one hours later, promoter activation was detected by the addition of SteadyLite (PerkinElmer, Waltham, MA) and GloMax 96 Microplate Luminometer (Promega, Madison, WI). The amount of Luminometer emitted from each well is positively correlated with the expression of PPARγ gene. A three-parameter Sigmoid function curve was used to fit the obtained data. The abscissa represents the logarithmic value of the concentration, and the ordinate represents the percentage of PPARγ gene activation relative to those of the control. […] In Statistical analysis, the coefficient of variation is used to measure the robustness and repeatability of the experiment. […] The difference is significant with P<0.05. EC50 is a parameter of its activity.

klotho gene = assay: In vivo brain transcriptional activity of klotho gene (RT-PCR of brain mRNA); design: species or system mouse; settings: 10 mg/kg body weight/day tail vein; for mRNA level of klotho gene in the brain of the mouse relative to vehicle control group: after 10 days of continuous injection; for fold induction at 10 mg/kg: Mus musculus, iv, 720 h, after 30 days of continuous injection, read-out: mRNA level of klotho gene in the brain of the mouse relative to vehicle control group
Protocol: To verify this hypothesis, adult male Kunming mice were used in the experiments. […] The injection volume is 8 ml/kg body weight. Dimethyl sulfoxide (DMSO) was used as a vehicle control of the compounds. […] The RNA was then reverse-transcribed to the cDNA, and quantified by SYBR Green fluorescence quantitative PCR kit (HaiGene) and a quantitative PCR system (Bio-Rad Min-Opticon Type 2) were used for real-time fluorescent quantitative polymerase chain reaction (RT-PCR). The mouse gene primers were design as follows: • KLOTHO-forward 5′-[…]-3′; • LOTHO-reverse 5′-[…]-3′; • GAPDH-forward 5′-[…]-3′; • GAPDH-reverse 5′-[…]-3′.
Data analysis was performed using the 2^−ΔΔct method. Semi-quantitative values of gene expression were then normalized by the control mean.

klotho gene promoter = assay: In vitro transcriptional activity of klotho gene (KL-Luc-3 luciferase cell line); type: cell-based; settings: 16 h, KL-Luc-3 cells, 16 hours incubation
Excerpt: The activities of these carbonyl-containing cyclic compounds are indicated by the increased expression of klotho gene. […] The present invention retains the DNA fragment of the klotho gene promoter, but replaces the DNA sequence of the coding region of the klotho gene with those of luciferase, so that the degree of activation of the klotho gene promoter and the expression of the klotho gene will be sensitively determined by detecting the luciferase luminescence signal.
Klotho is an important downstream gene of PPARγ pathway. The following experiments tested the properties of the compounds in Table 2 and 3 to activate the klotho gene in vitro. First, a stable cell line, KL-Luc, was constructed. The klotho gene carried by the cell line retained the DNA sequence of klotho gene promoter, but the coding sequence of the klotho gene was replaced with luciferase. KL-Luc fragment includes a promoter sequence of the klotho gene (a DNA region of 18,000 base pairs in length upstream of the transcription start site of the gene) and a luciferase-encoding sequence. To construct the KL-Luc sequence containing lentiviral vector, the KL-Luc fragment was cloned into the pDONR vector using BP recombinase, so that the target fragment had attL recombination sites on both sides. Then the KL-Luc fragment was transferred from the pDONR vector to a lentiviral vector (without exogenous promoter) pLenti6/BLOCK-IT-DEST. The constructed lentiviral vector of the target fragment was then transfected into HEK293T cells, and then the KL-Luc gene lentiviral expression vector and the […] were co-transfected into HEK293T cells to perform lentiviral packaging. The virus was harvested, and virus titer was calculated. And the lentivirus was used to infect target cells. The stable strains were screened by adding drugs. Finally, monoclonal cell lines were selected from polyclonal cells by cell cloning. The effective luciferase expression of each monoclonal cell line was determined by quantitative polymerase chain reaction (qPCR). The inventors chose a third monoclonal cell line (KL-Luc-3) to continue the compound screening. The compounds of interest were the compounds in Table 2 and 3. At the same time, rosiglitazone and pioglitazone were used as a control. KL-Luc-3 cells were divided into 96-well plates at 5000 cells in 80 microL per well, cultured in a 37° C. carbon dioxide incubator with serum-free Duchenne's Modified Eagle's Medium (DMEM) for 6 hours, and then the compounds were added to a final concentration of 0, 0.1, 0.3, 1, 3, 10, 30 micromole/L, with each concentration in triplicate. After 16 hours of incubation, the SteadyLite (PerkinElmer, Waltham, MA) and the GloMax Microplate Luminometer (Promega, USA) were used for quantitation of luciferase activity. The amount of luminescence emitted from each well is positively related to the transcriptional activity of the klotho promoter. A three-parameter Sigmoid function curve was used to fit the obtained data. The abscissa represents the logarithmic value of the concentration, and the ordinate represents the percentage of the activity relative to those of the control. […] In Statistical analysis, the coefficient of variation is used to measure the robustness and repeatability of the experiment. […] The difference is significant with P<0.05. EC50 is a parameter of its activity. The lower the EC50 value, the higher the activity of corresponding compound.

APP/PS1 transgenic mice = assay: Alzheimer's disease model, eight-arm radial water maze and brain gene expression; type: in vivo, mouse; settings: 30 days in food, 10 mg/kg body weight/day (donepezil 3 mg/kg body weight/day), 5 on the first day
Excerpt: A common indicator used in academia in memory and dementia experiments is the number of errors in the water maze (reference memory). More errors mean poorer memory. On the last 3 days of dosing, eight-arm radial water maze was used by experimenters who were blind to drug treatment. As a classic experimental instrument, to detect slight deficits in learning and memory, the eight-arm water maze is more sensitive than not only Morris maze, but also Six-arm radial water maze. For details, see reference 8: Alamed J et al. Two-day radial-arm water maze learning and memory task; robust resolution of amyloid-related memory deficits in transgenic mice [J]. […] This experiment uses an eight-arm water maze built in accordance with the above literature. The eight-arm water maze is placed in a basin with an interior diameter of 102 cm. Each arm measures 30 cm long, 14.5 cm wide, and 40 cm high. Escape platform is located at the end of one of the arms. In the reference memory version of the task described here, the goal arm is held constant for all trials, with a different start arm on successive trials. On day one, mice received 12 trials, with trials alternating between visible and hidden platform. On day 2 and 3, mice received 12 additional trials but the platform was kept hidden throughout the trials. Entry into an incorrect arm was scored as a spatial reference error. Errors were averaged into three trial blocks, with four blocks per day, e.g., the first block (the 1st to 3rd trial), the second block (the 4th to 6th trial), and so on. […]. The line charts were made with the number of blocks as the abscissa and the average of the number of errors as the ordinate. At the end of the experiments, the cerebral cortex and hippocampus of the mice were removed, RNA was extracted, and the expression of many genes was analyzed by semi-quantitative RT-PCR. […] The difference is significant with P<0.05.

db−/db− mice = assay: Diabetic peripheral neuropathy model, Von Frey threshold, sciatic nerve ROS and MDA; type: in vivo, mouse; settings: in food 10 mg/kg body weight/day (pregabalin 30 mg/kg body weight/day); for level of MDA in the sciatic nerve after 10 week treatment / level of mitochondrial ROS in the sciatic nerve after 10 week treatment: compared with healthy control group; for mechanical pain threshold after 10 week treatment: compared with normal control group
Protocol: Male 5-6 week-old male db^−/db^− mice were used in the experiment, and their normoglycemic heterozygous littermates were used as controls. db^−/db^− is a commonly used type 2 diabetes animal model. The compounds was dissolved in DMSO and mixed into food pellets. The animals were given ad libitum access to the pellets, beginning from 8 to 9 weeks of age for 10 weeks. […] The method for detecting mice hindlimb hypersensitivity is performed using Von Frey filaments. […] The difference is significant with P<0.05. The increase of mitochondrial reactive oxygen species (ROS) in the sciatic nerve of mice, which in turn leads to the increase of intracellular malondialdehyde (MDA), is the etiology of this type of neuropathic pain. The efficacy of compound to treat the root cause of the disease was evaluated by measurement of the levels of MDA and mitochondrial ROS from the sciatic nerves.

[1] = system: dIoN-CCI rat model of trigeminal neuropathic pain; assay: Trigeminal neuralgia model (dIoN-CCI), Von Frey mechanical threshold; settings: dIoN-CCI rats
Excerpt: A common rat model of trigeminal neuralgia is a chronic compression injury model (CCI) caused by ligation of the infraorbital nerve (IoN). In the present study, an improved rat model of trigeminal neuropathic pain was used, in which CCI is induced by ligation of distal segment of IoN (dIoN). Wild type male Sprague-Dawley rats with body weight 250 to 260 grams underwent dIoN-CCI surgery experiments. The mechanical threshold of pain in rats without surgery experiments will exceed 6 grams. If the dIoN-CCI surgery is successful, it will reduce the pain threshold to less than 2 grams.
The mice were divided into the following 11 groups with 4 to 5 mice in each group. The formulation used for transdermal treatment is cream. […] The compound administration of each group starts on the third day after successful dIoN-CCI surgery. […] The method for detecting rat facial hypersensitivity is performed using Von Frey filaments. An analysis of variance (ANOVA) and Dunnett post hoc comparison test are used to compare the significance of the differences between different groups of data. The difference is significant with P<0.05.

Structure (SMILES) | EC50 (PPARγ) | mRNA level of klotho gene in the brain of the mouse relative to vehicle control group (klotho gene) | fold induction at 10 mg/kg (klotho gene) | also measured
CCc1ccc(CCCCc2ccc3c(c2)NC(=O)CC3)cc1 [ELB00702, 7-(4-(4-ethylphenyl)butyl)-3,4-dihydroquinolin-2(1H)-one] | < 6.4 µM and 3.1 µM | more than twice | > 5 | 
CCc1ccc(CCCCc2ccc3c(c2)OCCC(=O)N3)cc1 [ELB00827, 8-(4-(4-ethylphenyl)butyl)-2,3-dihydrobenzo[b][1,4]oxazepin-4(5H)-one] | < 6.4 µM | more than twice | > 5 | EC50 (klotho gene promoter): < 9.7 µM
CCc1ccc(CC/C=C/c2ccc3c(c2)NC(=O)CO3)cc1 [ELB00993, (E)-6-(4-(4-ethylphenyl)but-1-en-1-yl)-2H-benzo[b][1,4]oxazin-3(4H)-one] | < 6.4 µM | more than twice | > 5 | 
CCc1ccc(CC/C=C/c2ccc3c(c2)C(=O)CCO3)cc1 [ELB001080, (E)-6-(4-(4-ethylphenyl)but-1-en-1-yl)chroman-4-one] | < 6.4 µM |  |  | number of errors in water maze on the third day (APP/PS1 transgenic mice): comparable to that of ELB00824; level of MDA in the sciatic nerve after 10 week treatment (db−/db− mice): reduced; level of mitochondrial ROS in the sciatic nerve after 10 week treatment (db−/db− mice): reduced; mechanical pain threshold after 10 week treatment (db−/db− mice): significantly improved
CCc1ccc(C/C=C/c2cccc(CC3NCC(=O)N3)c2)cc1 (centres unmarked) [ELB001090, (E)-2-(3-(3-(4-ethylphenyl)prop-1-en-1-yl)benzyl)imidazolidin-4-one] | < 6.4 µM and 3.9 µM | more than twice |  | EC50 (klotho gene promoter): < 9.7 µM
NCC1(CC(=O)O)CCCCC1 [gabapentin, reference compound] |  |  |  | side effect at the time of administration [1]: drowsiness; duration of the anti-allodynic effect ([1]; oral gabapentin group (1 mg/kg body weight)): 1 h
CC(C)C[C@H](CN)CC(=O)O [pregabalin, reference compound] |  |  |  | level of MDA in the sciatic nerve after 10 week treatment (db−/db− mice): significantly higher; level of mitochondrial ROS in the sciatic nerve after 10 week treatment (db−/db− mice): significantly higher; mechanical pain threshold after 10 week treatment (db−/db− mice): no difference
